Source: patent publication US10111936B2, “Metal-glycoprotein complexes and photodynamic therapy of immune privileged sites with same” (Theralase Technologies, Inc., priority 2015, dated 2018)

What was measured:
[1] = Absorbance / optical density with transferrin or OPTIFERRIN; type: physicochemical; settings: novel absorption in the red (600 nm) and near infrared (800 nm)
Experimental: Transferrin (0.2 mg/mL) was incubated with different photosensitizers (10 uM) and the absorbance spectra were obtained. […] Note that a large relative increase in absorbance may be accompanied by a small absolute difference and vice versa.
The optical density of TLD1433 was measured before and after the addition of either OPTIFERRIN (available from InVitria, a division of Ventria Bioscience) or human apo-transferrin (Sigma). […] This finding highlights the potential of using OPTIFERRIN to increase the efficacy of Theralase's TLD1433 photosensitizer. The increase in optical density will translate to a higher production of reactive oxygen species during PDT treatment. The absorption in red and near infrared light will allow for novel treatment applications for different tumors.

[2] = cited from earlier work
[3] = system: RG2 cells (rat glioblastoma tumor model); test: In vivo PDT in rat glioblastoma; settings: ALA mediated PDT in RG2 tumor model; comparison
Experimental: A four-month old rat was injected in the cerebral cortex with 5000 RG2 cells (rat glioblastoma tumor model). Eleven days later, the rat was injected with TLD1433 (5 mg/kg) with human apo-transferrin.
PDT was administered 24 hours later. Light source and fluence: 808 nm wavelength, 300 J/cm^2 delivered at 100 mW. The number of photons absorbed was 2.8×10^17 photons/cm^3.
A five-month old rat was injected in the cerebral cortex with 5000 RG2 cells. Eleven days later, the rat was injected with TLD1433 (5 mg/kg) with human apo-transferrin. PDT was administered 24 hours later. Light source and fluence: 808 nm wavelength, 600 J/cm^2 delivered at 200 mW. The number of photons absorbed was 4.41×10^18 photons/cm^3.

## TLD1433-OPTIFERRIN complex: complex of TLD1433 with OPTIFERRIN, a recombinant human transferrin
[1]
  optical density after addition of OPTIFERRIN: substantial increase in optical density

## Cn1nnc2c(C(N)=O)ncn2c1=O [temozolomide]
[2]
  half-life: approximately 1.8 hours

## NCC(=O)CCC(=O)O [aminolevulinic acid]
[3]
  post PDT survival: 8 days
